# Data reported in US5328913A, “Minoxidil analogs as inhibitors of cell proliferation and lysyl hydroxylase” (priority 1992, dated 1994).
# How the values were obtained:
# prolyl hydroxylase = assay: Prolyl hydroxylase activity in extracts of treated human skin fibroblasts (Example 1, tritium-release assay); format: cell-based; conditions: cultured fibroblasts, 72 h, Example 1
# Procedure: (§1) Cultures of human skin fibroblasts grown to confluence were incubated for 72 h in medium supplemented with 1% ethanol containing various concentrations of minoxidil or deoxyminoxidil as indicated. Cells were then harvested, and the enzyme activities in extracts of these cells were measured by tritium-release assays (Murad and Pinnell, J. Biol. Chem. 262:11,973 (1987)). The results are expressed as percentages of zero-concentration values.
# as §1, with “with 1% acetone containing various concentrations of minoxidil sulfate,” for “deoxyminoxidil”, “tritium release” for “tritium-release”
# Skin fibroblast cultures derived from an apparently normal child (GM05659) were obtained from the Institute for Medical Research, Camden, N.J. The cells were subcultured by trypsinization and used before 25 population doublings. Typically, 4×10^5 cells were seeded onto 100-mm (diameter) plastic petri dishes and allowed to grow in 10 ml of Dulbecco's modified Eagle's minimum essential medium containing 5.6 mM glucose, buffered in pH 7.4 with 24 mM sodium biocarbonate/25 mM Hepes and supplemented with 20% (v/v) calf serum which had been inactivated for 30 min at 56° C. The cells were incubated at 37° C. in a humidified atmosphere of 5% CO2 plus 95% air.
# After a week, the medium was replaced with medium supplemented with 0.5% heat-inactivated diaylzed calf serum, and the incubation was continued for 72 h in the presence of minoxidil or one of its structural analogs. The compounds were dissolved in 95% ethanol, except minoxidil sulfate which was dissolved in acetone; the final solvent concentration was 1% (v/v). During the last 3 h of incubation, cells received 100 μM Na L-ascorbate to ensure complete hydroxylation of the polypeptide precursors of precollagen (Murad et al, J. Invest. Dermatol. 75:404 (1980)).
# The medium was then removed and the cells were washed twice with a solution containing 0.14 M NaCl, 5 mM KCl, 0.3 mM Na2 PO4, and 0.4 mM KH2 PO4, adjusted to pH 7.4. […] The trypsinization was terminated with 2 vol of 20% serum-supplemented medium, and the cell number in an aliquot of the suspension was determined using a Coulter counter. […]
# The protein content of cell extracts was determined by a dye-binding technique using Bio-Rad reagent and protein standard (Bradford, Anal. Biochem. 72:248 (1976)).
# lysyl hydroxylase [1] = assay: Lysyl hydroxylase activity in fibroblasts treated with minoxidil and its hydroxy derivatives (Example 3); format: cell-based, human; conditions: for Fibroblast Lysyl Hydroxylase Activity: 48 hr
# Procedure: Culture of human skin fibroblasts derived from an apparently normal adult were grown to confluent densities in Dulbecco's modified Eagle's medium supplemented with 10% (v/v) fetal calf serum. Thereafter, the medium was replaced with medium supplemented with 0.5% dialyzed fetal calf serum. […] In some experiments, minoxodil was dissolved in 95% (v/v) ethanol; the final concentration of minoxidil was 0.3 mM and that of ethanol was 0.3%. Cultures treated with ethanol only served as the control.
# During the last 3 hr of treatment, cultures received 100 μM ascorbic acid. The enzyme activities in extracts of treated cells were measured by tritium-release assays described previously (Murad and Pinnell, J. Biol. Chem. 262:11,973 (1987)).
# lysyl hydroxylase [2] = conditions: Murad and Pinnell 1987; cited from earlier work
# [3] = test system: Lysyl Hydroxylations in Human Skin Fibroblasts; assay: Hydroxylation of lysine residues in type I procollagen (Hyl/Lys); format: cell-based; conditions: for Hyl/Lys: 72 hr
# Procedure: Culture of human skin fibroblasts derived from an apparently normal adult were grown to confluent densities in Dulbecco's modified Eagle's medium supplemented with 10% (v/v) fetal calf serum. Thereafter, the medium was replaced with medium supplemented with 0.5% dialyzed fetal calf serum. The cultures were treated for 72 hr with 1 mM minoxidil, 3'- hydroxyminoxidil,or 4'-hydroxyminoxidil (Upjohn) dissolved in aqueous medium. In some experiments, minoxodil was dissolved in 95% (v/v) ethanol; […]. Cultures treated with ethanol only served as the control.
# During the last 6 hr of treatment, cultures were labeled with 50 μCi of L-[2,3-^3 H]proline (35 Ci/mmol) and 50 μCi of L[U-^14 C]lysine ([…]) in 4 ml of lysine-free medium supplemented with 100 μM ascorbic acid. At the end of the incubation period, the medium was removed and mixed with 1 mM each of EDTA, N-ethylmaleimide, and phenylmethylsulfonylfluoride, and the collagenous proteins were precipitated with 30% (NH4)2 SO4. The cell layer was scraped and extracted with 0.5 M acetic acid containing the protease inhibitors as above. The cell extract was neutralized, and the collagenous proteins were precipitated as above. The (NH4)2 SO4 precipitate from the medium and cell layer was separately dissolved in 0.1% SDS/10 mM Tris-HCl (pH 6.8), reduced with dithiothreitol, and analyzed by electrophoresis on 4% SDS-polyacrylamide gels. The bands corresponding to the proαl(I) and proα2(I) chains from the two fractions were pooled and hydrolyzed with 6 M HCl for 24 hr at 110° C. Proline, hydroxyproline, lysine, and hydroxylysine in the hydrolysate were separated by HPLC (Takimitsa et al, J. Dermatol. 16:37 (1989)), and their radioactivity was determined in a Beckman liquid scintillation counter. To isolate type I procollagen the precipitate from the medium and cell layer was separately dissolved in 25 mM Tris-HCl, pH 7.5, containing 2 M urea and 1 mM each of EDTA, N-ethylmaleimide, and phenylmethylsulfonylfluoride, then chromatographed on a DEAE-cellulose column (Freiberger et al, J. Invest. Dermatol. 75:425 (1980)). The procollagen isolated from the two fractions was pooled, hydrolyzed, and analyzed as above.
# [4] = in vivo; cited from earlier work
smiles,measurement,setting,value
Nc1cc(N2CCCCC2)nc(N)[n+]1[O-] [Minoxidil],effect on prolyl hydroxylase activity (in words),prolyl hydroxylase,no significant effect on prolyl hydroxylase activity
same,Fibroblast Lysyl Hydroxylase Activity,lysyl hydroxylase [1]; 1 mM,378 cpm^3 H2 O/mg protein
same,"Lysyl hydroxylase activity, % of control level","lysyl hydroxylase [1]; 1 mM, 72 hr",25%
same,Lysyl Hydroxylase Activity,"lysyl hydroxylase [1]; 1 mM, 72 hr (Table VI)",308 cpm ^3 H2 O/mg protein
same,Lysyl Hydroxylase Activity,"lysyl hydroxylase [1]; 1 mM, 72 hr (description table)",308 cpm^3 H2 O/mg protein
same,lysyl hydroxylase suppressing activity at 5 mM (in words),lysyl hydroxylase [1]; 5 mM,loses its effect
same,Fibroblast Lysyl Hydroxylase Activity,lysyl hydroxylase [1]; 5 mM,1321 cpm^3 H2 O/mg protein
same,effect on lysyl hydroxylase in cultured fibroblasts (in words),lysyl hydroxylase [2],selectively decreased the activity of lysyl hydroxylase
same,Hyl/Lys,"[3]; 1 mM, gel electrophoresis (Table V)",0.07 ± 0.02
same,Hyl/Lys,"[3]; 1 mM, type I procollagen chains isolated by gel electrophoresis, mean ± range of two experiments (description table)",0.07 ± 0.02
same,activity at 1000 µM,"[3]; Homo sapiens, Skin fibroblast, 1 mM, 72 hr (Table V), read-out: ratio of hydroxylysine to lysine, percentage of control value",32%
same,"ratio of hydroxylysine to lysine, % of control","[3]; procollagen isolated by column chromatography, 4320 min",50%
same,"ratio of hydroxylysine to lysine, % of control value","[3]; procollagen isolated by gel chromatography (so in the source), 4320 min",27%
same,antihypertensive / hypotensive activity (in words),[4],hypotensive activity
